Results taken from patent US11958861B2, “Spirocyclic lactams as JAK2 V617F inhibitors” (Incyte Corporation, priority 2021, dated 2024).
Where a name gives a salt, the structure may show the parent alone.

Columns and labels:
[1] = biological target: T1, pseudo-kinase domain (JH2, amino-acids 536-812) of human Wild Type JAK2 (Homo sapiens, UniProt O60674, F794H/W659A/W777A); experiment: JAK2 LanthaScreen JH2-WT Binding Assay; conditions: 1 hour at 25° C.
T1 construct: pseudo-kinase domain (JH2, amino-acids 536-812 with 3 surface mutations W659A, W777A, F794H); purchased BPS Bioscience 79463; host or cells: baculovirus expression system
Summary of the method: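 IC50 values derive from four-parameter fits of LanthaScreen signal, measuring displacement of 50 nM fluorescent tracer from 0.145 nM biotinylated, baculovirus-expressed JH2 (536-812) detected by 0.25 nM streptavidin-Tb. Incubation lasts 1 hour at 25° C, pH 7.5.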

[2] = biological target: T2, pseudo-kinase domain (JH2, amino-acids 536-812) of human V617F mutant JAK2 (Homo sapiens, UniProt O60674, F794H/V617F/W659A/W777A); experiment: JAK2 LanthaScreen JH2-V617F Binding Assay; conditions: 1 hour at 25° C.
T2 construct: pseudo-kinase domain (JH2, amino-acids 536-812 with 3 surface mutations W659A, W777A, F794H); purchased BPS Bioscience 79498; host or cells: baculovirus expression system
Summary of the method: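 This is a TR-FRET tracer-displacement format with a 1 h, 25 °C incubation. It combined 0.26 nM baculovirus-expressed biotinylated JH2-V617F, 50 nM fluorescent JAK2-JH2 tracer and 0.25 nM streptavidin-Tb cryptate in 50 mM Tris pH 7.5, 10 mM MgCl2, 5 mM DTT. Background came from 2 mM ATP, and IC50 values were from four-parameter dose-response fits.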

[3] = biological target: T3, catalytic domain (JH1, amino acids 808-1132) of human JAK2 (Homo sapiens, UniProt O60674); experiment: JAK2 HTRF Enzyme Activity Assay; format: biochemical; conditions: ATP 30 μM, read-out: ENZ 30UMATP
T3 construct: catalytic domain (JH1, amino acids 808-1132) of human JAK2; His (N); purchased BPS Bioscience 40450; host or cells: baculovirus expression system
Summary of the method: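 IC50 values come from a four-parameter fit of HTRF signal (Eu-PY20 antibody/streptavidin-APC, EDTA-quenched). Reaction: 0.015 nM N-His JAK2 catalytic domain (baculovirus), 500 nM biotin-peptide, 30 μM or 1 mM ATP, Tris pH 7.5 buffer, 60 min, 25° C.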

[4] = biological target: T4, catalytic domain (JH1, amino acids 826-1132) of human JAK2 (Homo sapiens, UniProt O60674); experiment: JAK2 LanthaScreen JH1 Binding Assay; conditions: 2 hours at 25° C.
T4 construct: catalytic domain (JH1, amino acids 826-1132) of human JAK2; purchased Carna Biosciences 08-445-20N; host or cells: baculovirus expression system
Summary of the method: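 Reaction held 1.5 nM biotinylated FLAG-JAK2 JH1, 50 nM tracer and 0.5 nM streptavidin-Tb in pH 7.5 Tris buffer; 2 mM ATP defined nonspecific binding.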

T4 sequence (O60674 826-1132): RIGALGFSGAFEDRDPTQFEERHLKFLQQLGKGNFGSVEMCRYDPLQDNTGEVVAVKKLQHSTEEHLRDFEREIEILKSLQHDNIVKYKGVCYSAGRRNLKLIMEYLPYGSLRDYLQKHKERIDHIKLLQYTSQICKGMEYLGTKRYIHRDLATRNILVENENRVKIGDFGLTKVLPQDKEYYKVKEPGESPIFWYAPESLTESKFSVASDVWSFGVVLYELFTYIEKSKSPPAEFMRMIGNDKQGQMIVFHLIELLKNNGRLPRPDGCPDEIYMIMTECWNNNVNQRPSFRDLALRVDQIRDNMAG
T1 sequence (O60674 536-812 W659A/W777A/F794H): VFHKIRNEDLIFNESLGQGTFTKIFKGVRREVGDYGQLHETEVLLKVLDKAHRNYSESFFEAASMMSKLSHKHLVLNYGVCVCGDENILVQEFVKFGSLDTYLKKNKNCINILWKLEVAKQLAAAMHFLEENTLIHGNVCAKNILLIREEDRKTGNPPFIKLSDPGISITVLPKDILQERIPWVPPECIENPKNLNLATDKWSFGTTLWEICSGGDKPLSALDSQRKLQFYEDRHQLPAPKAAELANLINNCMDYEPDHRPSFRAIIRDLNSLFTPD
T3 sequence (O60674 808-1132): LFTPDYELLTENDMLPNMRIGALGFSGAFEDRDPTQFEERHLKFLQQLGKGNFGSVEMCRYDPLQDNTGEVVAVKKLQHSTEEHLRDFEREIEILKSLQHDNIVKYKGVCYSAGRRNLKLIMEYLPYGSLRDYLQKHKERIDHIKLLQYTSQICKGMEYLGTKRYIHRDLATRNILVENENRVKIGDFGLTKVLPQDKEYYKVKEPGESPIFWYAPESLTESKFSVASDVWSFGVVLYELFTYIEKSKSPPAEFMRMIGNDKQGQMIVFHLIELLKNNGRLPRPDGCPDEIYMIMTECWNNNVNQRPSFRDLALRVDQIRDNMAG
T2 sequence (O60674 536-812 V617F/W659A/W777A/F794H): as the sequence (O60674 536-812 W659A/W777A/F794H) above, with V82F counted along it

Compound | IC50 [1] [nM] | IC50 [2] [nM] | IC50 [3] [nM] | IC50 [4] [nM]
CN1C(=O)C2(CCOCC2)c2c1cnc1[nH]c(-c3ccc(CN4CCC(S(C)(=O)=O)CC4)cc3)c(-c3ccccc3)c21 [Example 1, 6-Methyl-2-(4-((4-(methylsulfonyl)piperidin-1-yl)methyl)phenyl)-1-phenyl-2′,3,3′,5′,6,6′-hexahydro-7H-spiro[dipyrrolo[2,3-b:3′,2′-d]pyridine-8,4′-pyran]-7-one] | ≤ 100 | ≤ 100 | 1250 to 2500 | 1250 to 2500
CC(=O)N1CCC(N2CC3(C2)C(=O)N(C)c2cnc4[nH]c(-c5ccc(CN6CCC(S(C)(=O)=O)CC6)cc5)c(-c5ccccc5)c4c23)CC1 [Example 3] | 100 to 500 | 100 to 500 | > 2500 | > 2500
CN1C(=O)C2(CCN(CCC#N)CC2)c2c1cnc1[nH]c(-c3ccc(CN4CCC(S(C)(=O)=O)CC4)cc3)c(-c3ccccc3)c21 [Example 4, 3-(6-Methyl-2-((4(4-(methylsulfonyl)piperidin-1-yl)methyl)phenyl)-7-oxo-1-phenyl-6,7-dihydro-3H-spiro[dipyrrolo[2,3-b:3′,2′-d]pyridine-8,4′-piperidin]-1′-yl)propanenitrile trifluoroacetate salt] | ≤ 100 | ≤ 100 | 500 to 1250 | 500 to 1250
CN1C(=O)C2(CCN(CCC#N)CC2)c2c1cnc1[nH]c(-c3ccc(CN4CCC(S(C)(=O)=O)CC4)cc3)c(-c3ccc4c(cnn4C)c3)c21 [Example 5, 3-(6-Methyl-1-(1-methyl-1H-indazol-5-yl)-2-(4-((4-(methylsulfonyl)piperidin-1-yl)methyl)phenyl)-7-oxo-6,7-dihydro-3H-spiro[dipyrrolo[2,3-b:3′,2′-d]pyridine-8,4′-piperidin]-1′-yl)propanenitrile trifluoroacetate salt] | ≤ 100 | ≤ 100 | 500 to 1250 | 500 to 1250
CN1C(=O)C2(CCN(c3cnn(C4(CC#N)CCOCC4)c3)CC2)c2c1cnc1[nH]c(-c3cnn(C)c3)c(-c3ccccc3)c21 [Example 6, 2-(4-(4-(6-Methyl-2-(1-methyl-1H-pyrazol-4-yl)-7-oxo-1-phenyl-6,7-dihydro-3H-spiro[dipyrrolo[2,3-b:3′,2′-d]pyridine-8,4′-piperidin]-1′-yl)-1H-pyrazol-1-yl)tetrahydro-2H-pyran-4-yl)acetonitrile trifluoroacetate salt] | ≤ 100 | ≤ 100 | > 2500 | > 2500
[2H]C([2H])([2H])n1cc(-c2[nH]c3ncc4c(c3c2-c2ccc3c(cnn3C)c2)C2(CCN(CCC#N)CC2)C(=O)N4C)cn1 [Example 7, 3-(6-Methyl-1-(1-methyl-1H-indazol-5-yl)-2-(1-(methyl-d3)-1H-pyrazol-4-yl)-7-oxo-6,7-dihydro-3H-spiro[dipyrrolo[2,3-b:3′,2′-d]pyridine-8,4′-piperidin]-1′-yl)propanenitrile] | ≤ 100 | ≤ 100 | 1250 to 2500 | 1250 to 2500
CN1C(=O)C2(CCCC2)c2c1cnc1[nH]c(-c3cnn(Cc4ccncc4)c3)c(-c3ccc4c(cnn4C)c3)c21 [Example 8, 6′-Methyl-1′-(1-methyl-1H-indazol-5-yl)-2′-(1-(pyridin-4-ylmethyl)-1H-pyrazol-4-yl)-3′,6′-dihydro-7′H-spiro[cyclopentane-1,8′-dipyrrolo[2,3-b:3′,2′-d]pyridin]-7′-one trifluoroacetate salt] | ≤ 100 | ≤ 100 | > 2500 | 1250 to 2500
CN1C(=O)C2(CCCC2)c2c1cnc1[nH]c(C3CC3)c(-c3ccc4c(cnn4C)c3)c21 [Example 9, 2′-Cyclopropyl-6′-methyl-1′-(1-methyl-1H-indazol-5-yl)-3′,6′-dihydro-7′H-spiro[cyclopentane-1,8′-dipyrrolo[2,3-b:3′,2′-d]pyridin]-7′-one, trifluoroacetate salt] | 100 to 500 | 100 to 500 | > 2500 | > 2500
CN1C(=O)C2(CCC2)c2c1cnc1[nH]c(-c3ccc(CN4CCC(S(C)(=O)=O)CC4)cc3)c(-c3ccccc3)c21 [Example 10, 6′-Methyl-2′-(4-((4-(methylsulfonyl)piperidin-1-yl)methyl)phenyl)-1′-phenyl-3′,6′-dihydro-7′H-spiro[cyclobutane-1,8′-dipyrrolo[2,3-b:3′,2′-d]pyridin]-7′-one trifluoroacetate salt] | ≤ 100 | ≤ 100 | > 2500 | > 2500
CN1C(=O)C2(CCCCC2)c2c1cnc1[nH]c(-c3ccc(CN4CCC(S(C)(=O)=O)CC4)cc3)c(-c3ccccc3)c21 [Example 11, 6′-Methyl-2′-((4(4-(methylsulfonyl)piperidin-1-yl)methyl)phenyl)-1′-phenyl-3′,6′-dihydro-7′H-spiro[cyclohexane-1,8′-dipyrrolo[2,3-b:3′,2′-d]pyridin]-7′-one trifluoroacetate salt] | 100 to 500 | 100 to 500 | > 2500 | > 2500
CC(=O)N1C2CCC1CC1(C2)C(=O)N(C)c2cnc3[nH]c(-c4ccc(CN5CCC(S(C)(=O)=O)CC5)cc4)c(-c4ccccc4)c3c21 (stereo not shown) [Example 13, 8-Acetyl-6′-methyl-2′-((4(4-(methylsulfonyl)piperidin-1-yl)methyl)phenyl)-1′-phenyl-3′,6′-dihydro-7′H-8-azaspiro[bicyclo[3.2.1]octane-3,8′-dipyrrolo[2,3-b:3′,2′-d]pyridin]-7′-one trifluoroacetate salt] | ≤ 100 | 100 to 500 | 1250 to 2500 | 1250 to 2500
CN1C(=O)C2(CCN(c3ccncn3)CC2)c2c1cnc1[nH]c(-c3ccc(CN4CCC(S(C)(=O)=O)CC4)cc3)c(-c3ccccc3)c21 [Example 15, 6-Methyl-2-(4-((4-(methylsulfonyl)piperidin-1-yl)methyl)phenyl)-1-phenyl-1′-(pyrimidin-4-yl)-3,6-dihydro-7H-spiro[dipyrrolo[2,3-b:3′,2′-d]pyridine-8,4′-piperidin]-7-one, trifluoroacetate salt] | ≤ 100 | ≤ 100 | > 2500 | > 2500
CN1C(=O)C2(CC3CCC(C2)N3c2ccncn2)c2c1cnc1[nH]c(-c3ccc(CN4CCC(S(C)(=O)=O)CC4)cc3)c(-c3ccccc3)c21 [Example 16, (1R,3r,5S)-6′-Methyl-2′-((4(4-(methylsulfonyl)piperidin-1-yl)methyl)phenyl)-1′-phenyl-8-(pyrimidin-4-yl)-3′,6′-dihydro-7′H-8-azaspiro[bicyclo[3.2.1]octane-3,8′-dipyrrolo[2,3-b:3′,2′-d]pyridin]-7′-one, trifluoroacetate salt] | ≤ 100 | ≤ 100 | > 2500 | > 2500
Cc1ncc(-c2c(-c3cnn(C)c3)[nH]c3ncc4c(c23)C2(CCN(c3ccncn3)CC2)C(=O)N4C)s1 [Example 17, 6-Methyl-2-(1-methyl-1H-pyrazol-4-yl)-1-(2-methylthiazol-5-yl)-1′-(pyrimidin-4-yl)-3,6-dihydro-7H-spiro[dipyrrolo[2,3-b:3′,2′-d]pyridine-8,4′-piperidin]-7-one, trifluoroacetate salt] | 100 to 500 | 100 to 500 | > 2500 | > 2500
C=Cc1c(-c2cnn(C)c2)[nH]c2ncc3c(c12)C1(CCN(c2ccncn2)CC1)C(=O)N3C [Example 18, 6-Methyl-2-(1-methyl-1H-pyrazol-4-yl)-1′-(pyrimidin-4-yl)-1-vinyl-3,6-dihydro-7H-spiro[dipyrrolo[2,3-b:3′,2′-d]pyridine-8,4′-piperidin]-7-one, trifluoroacetate salt] | 500 to 1250 | 1250 to 2500 | > 2500 | > 2500
CCc1c(-c2cnn(C)c2)[nH]c2ncc3c(c12)C1(CCN(c2ccncn2)CC1)C(=O)N3C [Example 19, 1-Ethyl-6-methyl-2-(1-methyl-1H-pyrazol-4-yl)-1′-(pyrimidin-4-yl)-3,6-dihydro-7H-spiro[dipyrrolo[2,3-b:3′,2′-d]pyridine-8,4′-piperidin]-7-one, trifluoroacetate salt] | 100 to 500 | 100 to 500 | 1250 to 2500 | 1250 to 2500
